We go through 46 compounds from patent US8628771B2, “CA IX-specific inhibitors” (Institute of Virology Slovak Academy of Sciences, priority 2002, dated 2014).

Molecules are shown by their SMILES. Where two headings read alike, the source gives them in different places.

The target of test [1] is T1, bCA IV (Bos taurus, UniProt Q95323).
T1 construct: CA IV was isolated from bovine lung microsomes as described by Maren et al; from tissue; host or cells: bovine lung microsomes
T1 sequence (Q95323 19-284): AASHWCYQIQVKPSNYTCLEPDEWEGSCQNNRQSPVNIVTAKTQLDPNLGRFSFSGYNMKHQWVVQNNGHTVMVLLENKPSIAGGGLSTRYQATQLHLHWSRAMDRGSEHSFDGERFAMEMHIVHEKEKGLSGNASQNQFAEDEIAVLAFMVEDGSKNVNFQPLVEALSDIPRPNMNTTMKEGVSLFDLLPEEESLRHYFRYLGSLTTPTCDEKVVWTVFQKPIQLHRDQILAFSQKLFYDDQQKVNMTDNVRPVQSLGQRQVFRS
In words: CA esterase activity assay, isozyme bCA IV. Format: biochemical, bovine. Conditions: read-out: KI bCA IV.

The target of test [2] is hCA IX (Homo sapiens, UniProt Q16790). In words: CA CO2 hydrase activity assay, tumor-associated isozyme hCA IX.
Description: An SX.18MV-R Applied Photophysics stopped-flow instrument has been used for assaying the CA CO2 hydration activity assays [44]. […] Inhibitor and enzyme solutions were preincubated together for 10 min at room temperature prior to assay, in order to allow for the formation of the E-I complex.
Test [3] deals with T2, hCA I (Homo sapiens, UniProt P00915).
T2 construct: made in house; host or cells: Escherichia coli BL21 (DE3)
T2 sequence (P00915 whole entry): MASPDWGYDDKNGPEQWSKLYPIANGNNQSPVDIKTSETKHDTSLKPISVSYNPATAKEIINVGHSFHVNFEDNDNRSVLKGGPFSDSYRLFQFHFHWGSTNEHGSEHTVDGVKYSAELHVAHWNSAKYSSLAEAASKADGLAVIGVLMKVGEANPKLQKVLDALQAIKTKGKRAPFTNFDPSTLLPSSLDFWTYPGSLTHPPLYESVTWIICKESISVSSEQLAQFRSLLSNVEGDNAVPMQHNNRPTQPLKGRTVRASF
In words: CA esterase activity assay, isozyme hCA I. The format is biochemical.
Description: Human CA I and CA II cDNAs were expressed in Escherichia coli strain BL21 (DE3) from the plasmids pACA/hCA I and pACA/hCA II described by Lindskog's group [54].
Non-enzymatic hydrolysis rates were always subtracted from the observed rates. […] Inhibitor and enzyme solutions were preincubated together for 10 min at room temperature prior to assay, in order to allow for the formation of the E-I complex. The inhibition constant KI was determined as described in references [44, 76].

In test [4] the target is T3, hCA II (Homo sapiens, UniProt P00918).
T3 construct: made in house; host or cells: Escherichia coli BL21 (DE3)
In words: CA esterase activity assay, isozyme hCA II. Format: biochemical.

Setting [5] is: Table 1, isolated from bovine lung microsomes, esterase assay method.
The mark [6] stands for this setting: read-out: KI hCA IX, Table 1, human cloned isozyme, CO2 hydrase assay method.
The mark [7] stands for this setting: Table 1, human cloned isozymes, esterase assay method, read-out: KI hAC I.
The mark [8] stands for this setting: Table 2, from bovine lung microsomes.
Setting [9] is: read-out: KI hCA IX, Table 2, catalytic domain of the human, cloned isozyme.
Setting [10] is: Table 2, human (cloned) isozymes, read-out: KI hCA I.
The mark [11] stands for this setting: Table 2, human (cloned) isozymes, read-out: KI hCA II.

The term Ki denotes a dissociation constant, usually derived from enzyme kinetics or from competition with a known ligand. As for `CCN[C@H]1CN(CCCOC)S(=O)(=O)c2sc(S(N)(=O)=O)cc21` [BRZ, brinzolamide, reference compound], in test [1] (setting [5]), the Ki worked out at 45 nM.
As for `Nc1ccccc1S(N)(=O)=O` [Compound 1], the inhibitory constant (Ki) in test [1] (setting [5]) came out at 1310 nM; in test [2] (setting [6]), 33 nM.
As for `Nc1ccc(S(N)(=O)=O)cc1` [Compound 3, sulfanilamide], the inhibition constant Ki in test [1] turned out to be 3000 nM.
For `NNc1ccc(S(N)(=O)=O)cc1` [Compound 4, 4-hydrazino-benzenesulfonamide], the Ki came out at 3220 nM in test [1] (setting [5]) and 78500 nM in test [3] (setting [7]).
On to `NCc1ccc(S(N)(=O)=O)cc1` [Compound 5, homosulfanilamide], for which, in test [2] (read-out: KI hCA IX), the Ki was found to be 103 nM.
Turning to `Nc1ccc(S(N)(=O)=O)cc1F` [Compound 7], the Ki in test [1] (setting [5]) stood at 180 nM; in test [2] (setting [6]), 245 nM.
Take `Nc1ccc(S(N)(=O)=O)cc1Cl` [Compound 8]: the Ki in test [2] (setting [6]) came to 264 nM.
As to `Nc1ccc(S(N)(=O)=O)cc1Br` [Compound 9], in test [1] (setting [5]), the inhibitory constant (Ki) turned out to be 66 nM.
Take `Nc1ccc(S(N)(=O)=O)cc1I` [Compound 10]: the Ki in test [1] (setting [5]) is 125 nM; in test [2] (setting [6]), 285 nM; in test [3] (setting [7]), 6000 nM.
For the compound `Nc1cc(C(F)(F)F)c(S(N)(=O)=O)cc1S(N)(=O)=O` [Compound 11], the Ki in test [1] (setting [5]) turned out to be 154 nM.
As to `Cn1nc(S(N)(=O)=O)sc1=N` [Compound 14], the Ki in test [2] (setting [6]) was 30 nM.
Consider `Nc1ccc(S(=O)(=O)Nc2ccc(S(N)(=O)=O)cc2)cc1` [Compound 16], for which the results for the Ki in test [1] (setting [5]) and in test [2] (setting [6]) were 129 nM and 34 nM, respectively.
As to `Nc1ccc(S(=O)(=O)Nc2ccccc2S(N)(=O)=O)cc1` [Compound 17], the Ki is 144 nM in test [1] (setting [5]) and 185 nM in test [3] (setting [7]).
Regarding `Nc1ccc(S(=O)(=O)NCc2ccc(S(N)(=O)=O)cc2)cc1` [Compound 18], the Ki in test [1] (setting [5]) came to 72 nM.
For `Nc1ccc(S(=O)(=O)NCCc2ccc(S(N)(=O)=O)cc2)cc1` [Compound 19], the Ki in test [1] (setting [5]) worked out at 72 nM; in test [2] (setting [6]), 24 nM.
On to `Nc1nccc(Nc2ccc(S(N)(=O)=O)cc2)n1` [Compound 20], for which the inhibition constant Ki in test [1] (setting [5]) is 154 nM; in test [2] (read-out: KI against CA IX, text discussion of Tables 1-3), 16 to 32 nM; in test [2] (setting [6]) it was 16 nM.
Consider `NS(=O)(=O)c1cccc2cccnc12` [Compound 22], for which the Ki in test [1] (setting [5]) amounted to 415 nM; in test [2] (setting [6]) it was 32 nM.
As for `NS(=O)(=O)c1cccc2ccccc12` [Compound 23], the Ki in test [1] (setting [5]) was found to be 438 nM; in test [2] (setting [6]), 30 nM.
On to `NS(=O)(=O)c1ccc(CO)cc1` [Compound 24], for which, in test [2] (setting [6]), the inhibition constant (Ki) was found to be 21 nM.
`NS(=O)(=O)c1ccc(CCO)cc1` [Compound 25]: the figures for the Ki in test [1] (setting [5]) and in test [2] (setting [6]) were 450 nM and 22 nM, respectively.
The matching figures for `NS(=O)(=O)c1ccc(C(=O)O)cc1` [Compound 26]: 86 nM and 26 nM.
`Cc1cc(C)[n+](-c2ccc(S(N)(=O)=O)cc2)c(C)c1` [Compound 27]: the inhibition constant (Ki) was 290 nM in test [1] (setting [8]); 160 to 450 nM in test [2]; 165 nM in test [2] (setting [9]); 10000 nM in test [3] (setting [10]); 150 nM in test [4] (setting [11]).
Take `Cc1cc(-c2ccccc2)cc(C)[n+]1-c1ccc(S(N)(=O)=O)cc1` [Compound 28]: the inhibitory constant (Ki) was 211 nM in test [1] (setting [8]); 6 to 54 nM in test [2]; 48 nM in test [2] (setting [9]); 7000 nM in test [3] (setting [10]); 60 nM in test [4] (setting [11]).
Regarding `CCc1cc(-c2ccccc2)cc(CC)[n+]1-c1ccc(S(N)(=O)=O)cc1` [Compound 29], the Ki in test [1] (setting [8]) was 182 nM; in test [2] (KI against CA IX, text discussion of Tables 1-3), 6 to 54 nM; in test [2] (setting [9]), 43 nM; in test [3] (setting [10]) it was 6000 nM; in test [4] (setting [11]), 60 nM.
Take `CCCc1cc(-c2ccccc2)cc(CCC)[n+]1-c1ccc(S(N)(=O)=O)cc1` [Compound 30]: the inhibitory constant (Ki) in test [1] (setting [8]) is 194 nM; in test [2] (setting [9]), 178 nM; in test [3] (setting [10]), 10000 nM; in test [4] (setting [11]), 120 nM.
In the case of `CC(C)c1cc(-c2ccccc2)cc(C(C)C)[n+]1-c1ccc(S(N)(=O)=O)cc1` [Compound 31], the inhibition constant (Ki) came to 90 nM in test [1] (setting [8]), 160 nM in test [2] (setting [9]) and 5000 nM in test [3] (setting [10]).
For the compound `Cc1cc(-c2ccccc2)cc(-c2ccccc2)[n+]1-c1ccc(S(N)(=O)=O)cc1` [Compound 32], the Ki in test [1] (setting [8]) came to 852 nM; in test [2] (setting [9]) it was 280 nM; in test [3] (setting [10]), 40000 nM; in test [4] (setting [11]) it was 210 nM.
Consider `CCc1cc(-c2ccccc2)cc(-c2ccccc2)[n+]1-c1ccc(S(N)(=O)=O)cc1` [Compound 33], for which the Ki in test [1] (setting [8]) was 1300 nM; in test [2] (setting [9]), 450 nM; in test [3] (setting [10]), 43000 nM; in test [4] (setting [11]), 400 nM.
Regarding `CCCc1cc(-c2ccccc2)cc(-c2ccccc2)[n+]1-c1ccc(S(N)(=O)=O)cc1` [Compound 34], the Ki stood at 1480 nM in test [1] (setting [8]), 140000 nM in test [3] (setting [10]) and 580 nM in test [4] (setting [11]).
The matching figures for `CC(C)c1cc(-c2ccccc2)cc(-c2ccccc2)[n+]1-c1ccc(S(N)(=O)=O)cc1` [Compound 35]: 2100 nM, 125000 nM and 440 nM.
With `CCCCc1cc(-c2ccccc2)cc(-c2ccccc2)[n+]1-c1ccc(S(N)(=O)=O)cc1` [Compound 36], the Ki in test [1] (setting [8]) was determined as 2160 nM; in test [3] (setting [10]), 305000 nM; in test [4] (setting [11]), 620 nM.
On to `NS(=O)(=O)c1ccc(-[n+]2c(-c3ccccc3)cc(-c3ccccc3)cc2-c2ccccc2)cc1` [Compound 37], for which the inhibitory constant (Ki) in test [1] (setting [8]) was 2500 nM; in test [3] (setting [10]) it was 290000 nM; in test [4] (read-out: KI hCA II) it was 510 nM.
`Cc1cc(C)[n+](-c2ccc(S(N)(=O)=O)cc2)c(C)c1C` [Compound 38]: the Ki was 61 nM in test [1] (setting [8]); 64 to 135 nM in test [2]; 72 nM in test [2] (setting [9]); 5000 nM in test [3] (setting [10]); 40 nM in test [4] (setting [11]).
Consider `Cc1cc(-c2ccccc2)cc(C)[n+]1Cc1ccc(S(N)(=O)=O)cc1` [Compound 42], for which the inhibition constant Ki worked out at 70 nM in test [1] (setting [8]), 26 nM in test [2] (setting [9]) and 4000 nM in test [3] (setting [10]).
In the case of `CC(C)c1cc(-c2ccccc2)cc(C(C)C)[n+]1Cc1ccc(S(N)(=O)=O)cc1` [Compound 45], the inhibition constant (Ki) in test [2] (setting [9]) turned out to be 100 nM; in test [3] (setting [10]), 12000 nM; in test [4] (setting [11]), 61 nM.
For the compound `CC(C)c1cc(-c2ccccc2)cc(-c2ccccc2)[n+]1Cc1ccc(S(N)(=O)=O)cc1` [Compound 49], the Ki in test [2] (setting [9]) was 80 nM; in test [3] (setting [10]) it was 112000 nM; in test [4] (setting [11]) it was 370 nM.
Take `CC(C)(C)c1cc(-c2ccccc2)cc(-c2ccccc2)[n+]1Cc1ccc(S(N)(=O)=O)cc1` [Compound 51]: the Ki worked out at 1070 nM in test [1], 110000 nM in test [3] (setting [10]) and 321 nM in test [4] (setting [11]).
On to `Cc1cc(C)[n+](CCc2ccc(S(N)(=O)=O)cc2)c(C)c1.[O-][Cl+3]([O-])([O-])[O-]` [Compound 55], for which, in test [2] (setting [9]), the Ki stood at 14 nM.
In the case of `CC(C)c1cc(-c2ccccc2)cc(C(C)C)[n+]1CCc1ccc(S(N)(=O)=O)cc1` [Compound 61], the inhibitory constant (Ki) in test [2] was 64 to 135 nM; in test [2] (setting [9]), 89 nM; in test [3] (setting [10]), 6000 nM; in test [4] (setting [11]) it was 21 nM.
In the case of `Cc1cc(-c2ccccc2)cc(-c2ccccc2)[n+]1CCc1ccc(S(N)(=O)=O)cc1` [Compound 62], the Ki in test [2] is 6 to 54 nM; in test [2] (setting [9]), 37 nM; in test [3] (setting [10]), 18000 nM; in test [4] (setting [11]), 103 nM.
Consider `CCc1cc(-c2ccccc2)cc(-c2ccccc2)[n+]1CCc1ccc(S(N)(=O)=O)cc1` [Compound 63], for which the inhibition constant (Ki) in test [2] (setting [9]) came to 70 nM; in test [3] (setting [10]) it was 40000 nM; in test [4] (setting [11]) it was 220 nM.
Take `CC(C)c1cc(-c2ccccc2)cc(-c2ccccc2)[n+]1CCc1ccc(S(N)(=O)=O)cc1` [Compound 65]: the Ki in test [2] (setting [9]) amounted to 78 nM; in test [3] (read-out: KI hCA I) it was 94000 nM; in test [4] (setting [11]), 350 nM.
For the compound `CC(C)(C)c1cc(-c2ccccc2)cc(-c2ccccc2)[n+]1CCc1ccc(S(N)(=O)=O)cc1` [Compound 67], the figures for the Ki in test [1] (setting [8]), in test [3] (setting [10]) and in test [4] (setting [11]) were 1000 nM, 92000 nM and 275 nM, respectively.
For `NS(=O)(=O)c1ccc(CC[n+]2c(-c3ccccc3)cc(-c3ccccc3)cc2-c2ccccc2)cc1` [Compound 68], the Ki in test [2] was 64 to 135 nM; in test [2] (setting [9]), 95 nM; in test [3] (setting [10]), 270000 nM; in test [4] (setting [11]), 419 nM.
Consider `Cc1cc(-c2ccccc2)[n+](-c2ccc(S(=O)(=O)Nc3nnc(S(N)(=O)=O)s3)cc2)c(-c2ccccc2)c1` [Compound 86], for which the Ki was 12 to 35 nM in test [2]; 12 nM in test [2] (read-out: KI hCA IX, Table 3, catalytic domain of the human, cloned isozyme, CO2 hydrase assay method); 4.78 nM in test [4] (Table 3, human (cloned) isozymes, esterase assay method, read-out: KI hCA II); 3.13 to 5.96 nM in test [4] (read-out: KI against CA II).
In the case of `NS(=O)(=O)c1ccc(S(=O)(=O)Nc2cccc3c(Cl)c[nH]c23)cc1` [indisulam, reference compound], the Ki came out at 65 nM in test [1] (setting [8]) and 65 nM in test [1] (Table 3, from bovine lung microsomes, esterase assay method).
